Reference: patent publication US20250304576A1 (Cancer Research Technology Limited, priority 2022, published 2025)

Target: T1, Recombinant IKKβ (Homo sapiens, UniProt O14920)
T1 construct: purchased Millipore, Dundee, UK
T1 sequence (O14920 1-756): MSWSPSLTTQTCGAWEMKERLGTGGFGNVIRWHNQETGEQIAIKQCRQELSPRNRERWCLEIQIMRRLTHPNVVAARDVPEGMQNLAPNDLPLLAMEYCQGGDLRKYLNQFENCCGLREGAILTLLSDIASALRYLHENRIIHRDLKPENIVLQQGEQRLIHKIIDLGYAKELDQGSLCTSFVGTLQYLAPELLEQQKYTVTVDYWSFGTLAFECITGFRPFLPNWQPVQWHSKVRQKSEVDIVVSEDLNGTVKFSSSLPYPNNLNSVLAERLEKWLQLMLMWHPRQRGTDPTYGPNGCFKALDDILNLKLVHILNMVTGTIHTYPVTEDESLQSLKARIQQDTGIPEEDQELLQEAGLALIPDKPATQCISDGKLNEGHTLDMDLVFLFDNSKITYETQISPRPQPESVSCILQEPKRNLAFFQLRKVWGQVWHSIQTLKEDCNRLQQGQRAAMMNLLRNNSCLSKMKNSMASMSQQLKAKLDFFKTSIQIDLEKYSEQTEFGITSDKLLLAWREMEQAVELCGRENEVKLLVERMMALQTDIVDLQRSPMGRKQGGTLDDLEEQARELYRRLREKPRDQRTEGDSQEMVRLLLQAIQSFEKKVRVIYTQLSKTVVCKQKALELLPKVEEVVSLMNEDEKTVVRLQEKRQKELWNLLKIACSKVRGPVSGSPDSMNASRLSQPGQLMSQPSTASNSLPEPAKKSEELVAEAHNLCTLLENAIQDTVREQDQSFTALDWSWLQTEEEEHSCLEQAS
Assay: DELFIA IKKβ kinase assay (apparent Ki, Cheng-Prusoff)
Type: biochemical
Details: DELFIA assay (first line of an example)
How it was run: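 DELFIA time-resolved fluorescence (ex 340/em 615 nm) quantified phosphorylation of a biotinylated IκB-α Ser32 peptide (0.375 μM) by 37 nM recombinant IKKα or IKKβ. Reactions used 40 μM ATP, Tris pH 7.5 buffer with MgCl2, DTT and BSA, 60 min at 30° C. Cheng-Prusoff equation gave apparent Ki.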

| Structure (SMILES) | Ki [nM] |
| --- | --- |
| Nc1n[nH]c2c(C#CC3CCCC3)cc(-c3ccnc4[nH]ccc34)cc12 [Example 203, 7-(Cyclopentylethynyl)-5-(1H-pyrrolo[2,3-b]pyridin-4-yl)-1H-indazol-3-amine] | 452 |
| Nc1n[nH]c2c(C#CC3CC3)cc(-c3ccnc4[nH]ccc34)cc12 [Example 202, 7-(Cyclopropylethynyl)-5-(1H-pyrrolo[2,3-b]pyridin-4-yl)-1H-indazol-3-amine] | 181 |

Continued, values first:

| Ki [nM] | Structure (SMILES) |
| --- | --- |
| 126 | Nc1n[nH]c2ccc(-c3ccnc4[nH]c(CCCN5CCOCC5)cc34)cc12 [Example 271, 5-(2-(3-Morpholinopropyl)-1H-pyrrolo[2,3-b]pyridin-4-yl)-1H-indazlo-3-amine] |
| 1180 | Nc1n[nH]c2c(C#CC3CCCCC3)cc(-c3ccnc4[nH]ccc34)cc12 [Example 204, 7-(Cyclohexylethynyl)-5-(1H-pyrrolo[2,3-b]pyridin-4-yl)-1H-indazol-3-amine] |
| > 10000 | Nc1n[nH]c2ccc(-c3ccnc4[nH]c(C5CCCCN5)cc34)cc12 (centres unmarked) [Example 250, 5-(2-(Piperidin-2-yl)-1H-pyrrolo[2,3-b]pyridine-4-yl)-1H-indazol-3-amine] |
| 2510 | Nc1n[nH]c2ccc(-c3ccnc4[nH]c(CN5CCCCCC5)cc34)cc12 [Example 265, 5-(2-(Azepan-1-ylmethyl)-1H-pyrrolo[2,3-b]pyridine-4-yl)-1H-indazol-3-amine] |
| 272 | Nc1n[nH]c2ccc(-c3ccnc4[nH]c(C5CCCCO5)cc34)cc12 (centres unmarked) [Example 229, 5-(2-(Tetrahydro-2H-pyran-2-yl)-1H-pyrrolo[2,3-b]pyridin-4-yl)-1H-indazol-3-amine] |
| 1520 | CC(C)(O)C#Cc1cc(-c2ccnc3[nH]ccc23)cc2c(N)n[nH]c12 [Example 206, 4-(3-Amino-5-(1H-pyrrolo[2,3-b]pyridin-4-yl)-1H-indazol-7-yl)-2-methylbut-3-yn-2-ol] |
| 63 | Nc1n[nH]c2ccc(-c3ccnc4[nH]c(C5CC5)cc34)cc12 [Example 218, 5-(2-Cyclopropyl-1H-pyrrolo[2,3-b]pyridin-4-yl)-1H-indazol-3-amine] |
| 2430 | CN1CCN(Cc2cc3c(-c4ccc5[nH]nc(N)c5c4)ccnc3[nH]2)CC1 [Example 263, 5-(2-((4-Methylpiperazin-1-yl)methyl)-1H-pyrrolo[2,3-b]pyridine-4-yl)-1H-indazol-3-amine] |
| 1030 | CN1CCN(C(=O)c2cc3c(-c4ccc5[nH]nc(N)c5c4)ccnc3[nH]2)CC1 [Example 243, (4-(3-Amino-1H-indazol-5-yl)-1H-pyrrolo[2,3-b]pyridin-2-yl)(4-methylpiperazin-1-yl)methanone] |
| 50 | Nc1n[nH]c2ccc(-c3ccnc4[nH]c(CC5CCNCC5)cc34)cc12 [Example 272, 5-(2-(Piperidin-4-ylmethyl)-1H-pyrrolo[2,3-b]pyridin-4-yl)-1H-indazol-3-amine] |
| 461 | Nc1n[nH]c2ccc(-c3ccnc4[nH]c(C5CCCCC5)cc34)cc12 [Example 219, 5-(2-Cyclohexyl-1H-pyrrolo[2,3-b]pyridin-4-yl)-1H-indazol-3-amine] |
| 2140 | CC(C)N(C)Cc1cc2c(-c3ccc4[nH]nc(N)c4c3)ccnc2[nH]1 [Example 259, 5-(2-((Isopropyl(methyl)amino)methyl)-1H-pyrrolo[2,3-b]pyridine-4-yl)-1H-indazol-3-amine] |
| 277 | Nc1n[nH]c2ccc(-c3ccnc4[nH]c(CN5CCOCC5)cc34)cc12 [Example 262, 5-(2-(Morpholinomethyl)-1H-pyrrolo[2,3-b]pyridine-4-yl)-1H-indazol-3-amine] |
| 97 | Nc1n[nH]c2ccc(-c3ccnc4[nH]c(C5CCOCC5)cc34)cc12 [Example 228, 5-(2-(tetrahydro-2H-pyran-4-yl)-1H-pyrrolo[2,3-b]pyridin-4-yl)-1H-indazol-3-amine] |
| 1130 | CN(C)CCCNCc1cc2c(-c3ccc4[nH]nc(N)c4c3)ccnc2[nH]1 [Example 258, N^1-((4-(3-amino-1H-indazol-5-yl)-1H-pyrrolo[2,3-b]pyridin-2-yl)methyl)-N^3,N^3-dimethylpropane-1,3-diamine] |
| 1380 | Nc1n[nH]c2ccc(-c3ccnc4[nH]c(CCN5CCCCC5)cc34)cc12 [Example 267, 5-(2-(2-(Piperidin-1-yl)ethyl)-1H-pyrrolo[2,3-b]pyridine-4-yl)-1H-indazol-3-amine] |
| 251 | Nc1n[nH]c2ccc(-c3ccnc4[nH]c(CCN5CCOCC5)cc34)cc12 [Example 268, 5-(2-(2-Morpholinoethyl)-1H-pyrrolo[2,3-b]pyridin-4-yl)-1H-indazol-3-amine] |
| 272 | Nc1n[nH]c2ccc(-c3ccnc4[nH]c(C(=O)N5CCCC5)cc34)cc12 [Example 234, (4-(3-Amino-1H-indazol-5-yl)-1H-pyrrolo[2,3-b]pyridin-2-yl)(pyrrolidin-1-yl)methanone] |
| 2390 | Nc1n[nH]c2ccc(-c3ccnc4[nH]c(CN5CCC(F)(F)CC5)cc34)cc12 [Example 261, 5-(2-((4,4-Difluoropiperidin-1-yl)methyl)-1H-pyrrolo[2,3-b]pyridine-4-yl)-1H-indazol-3-amine] |
| 134 | Nc1n[nH]c2ccc(-c3ccnc4[nH]c(CCC5CCCCC5)cc34)cc12 [Example 222, 5-(2-(2-Cyclohexylethyl)-1H-pyrrolo[2,3-b]pyridin-4-yl)-1H-indazol-3-amine] |
| 1800 | CN1CCCN(Cc2cc3c(-c4ccc5[nH]nc(N)c5c4)ccnc3[nH]2)CC1 [Example 266, 5-(2-((4-Methyl-1,4-diazepan-1-yl)methyl)-1H-pyrrolo[2,3-b]pyridin-4-yl)-1H-indazol-3-amine] |
| 2370 | Nc1n[nH]c2c(C#CCCCN3CCCCC3)cc(-c3ccnc4[nH]ccc34)cc12 [Example 212, 7-(5-(Piperidin-1-yl)pent-1-yn-1-yl)-5-(1H-pyrrolo[2,3-b]pyridin-4-yl)-1H-indazol-3-amine] |

Same assay, conditions: non-italicised figure: DELFIA assay

| Structure (SMILES) | Ki [nM] |
| --- | --- |
| Nc1nccc(-c2ccc3[nH]nc(N)c3c2)c1C#CC1CCCC1 [Example 73, 5-(2-Amino-3-(cyclopentylethynyl)pyridine-4-yl)-1H-indazol-3-amine] | 289 |
| CC(C)(C)C#Cc1cc(-c2ccnc(N)c2)cc2c(N)n[nH]c12 [Example 137, 5-(2-Aminopyridin-4-yl)-7-(3,3-dimethylbut-1-yn-1-yl)-1H-indazol-3-amine] | 1470 |
| Nc1cc(-c2cc(-c3ccoc3)c3[nH]nc(N)c3c2)ccn1 [Example 129, 5-(2-Aminopyridin-4-yl)-7-(furan-3-yl)-1H-indazol-3-amine] | 511 |
| CC(C)(O)C#Cc1c(-c2ccc3[nH]nc(N)c3c2)ccnc1N [Example 87, 4-(2-Amino-4-(3-amino-1H-indazol-5-yl)pyridine-3-yl)-2-methylbut-3-yn-2-ol] | 294 |
| Nc1nccc(-c2ccc3[nH]nc(N)c3c2)c1C#CC1(O)CCCCCC1 [Example 91, 1-((2-Amino-4-(3-amino-1H-indazol-5-yl)pyridine-3-yl)ethynyl)cycloheptan-1-ol] | 3090 |
| Nc1nccc(-c2ccc3[nH]nc(N)c3c2)c1C#CCCCO [Example 85, 5-(2-Amino-4-(3-amino-1H-indazol-5-yl)pyridine-3-yl)pent-4-yn-1-ol] | 96 |
| Nc1nccc(-c2ccc3[nH]nc(N)c3c2)c1C#CC1(O)CCCCC1 [Example 90, 1-((2-Amino-4-(3-amino-1H-indazol-5-yl)pyridine-3-yl)ethynyl)cyclohexan-1-ol] | 1410 |
| Nc1nccc(-c2ccc3[nH]nc(N)c3c2)c1C#CCCCN1CCCCC1 [Example 95, 5-(2-Amino-3-(5-(piperidin-1-yl)pent-1-yn-1-yl)pyridin-4-yl)-1H-indazol-3-amine] | 3270 |
| Nc1cc(-c2cc(-c3ccccc3)c3[nH]nc(N)c3c2)ccn1 [Example 104, 5-(2-Aminopyridin-4-yl)-7-phenyl-1H-indazol-3-amine] | 838 |
| Nc1nccc(-c2ccc3[nH]nc(N)c3c2)c1C#CCCCN1CCOCC1 [Example 96, 5-(2-Amino-3-(5-morpholinopent-1-yn-1-yl)pyridin-4-yl)-1H-indazol-3-amine] | 1150 |
| Nc1nccc(-c2ccc3[nH]nc(N)c3c2)c1C#Cc1ccccc1 [Example 75, 5-(2-Amino-3-(phenylethynyl)pyridine-4-yl)-1H-indazol-3-amine] | 152 |
| CC(C)(C)C#Cc1c(-c2ccc3[nH]nc(N)c3c2)ccnc1N [Example 72, 5-(2-Amino-3-(3,3-dimethylbut-1-yn-1-yl)pyridine-4-yl)-1H-indazol-3-amine] | 268 |
| Nc1nccc(-c2ccc3[nH]nc(N)c3c2)c1C#CCCO [Example 84, 4-(2-Amino-4-(3-amino-1H-indazol-5-yl)pyridine-3-yl)but-3-yn-1-ol] | 103 |
| Nc1nccc(-c2ccc3[nH]nc(N)c3c2)c1C#CC1CCCCC1 [Example 74, 5-(2-Amino-3-(cyclohexylethynyl)pyridine-4-yl)-1H-indazol-3-amine] | 342 |
